# Experimental data published in patent US8450324B2, “Crystalline base of trans-1-((1R,3S)-6-chloro-3-phenylindan-1-yl)-3,3-dimethylpiperazine” (H. Lunbeck A/S, priority 2005, dated 2013).
# Tests used:
# [1] = target: dopamine (DA) D1 receptors (Homo sapiens, UniProt P21728); conditions: as described in PCT/DK04/000546; cited from earlier work
# [2] = target: serotonin 5-HT2a receptors (Homo sapiens, UniProt P28223); conditions: as described in PCT/DK04/000546; cited from earlier work
# QT interval = conditions: rabbit model; as described in PCT/DK04/000546; cited from earlier work
# dopamine D1 receptors = dopamine D1 receptors (Homo sapiens, UniProt P21728); conditions: as described in PCT/DK04/000546; cited from earlier work
# dopamine D2 receptors = dopamine D2 receptors (Homo sapiens, UniProt P14416); conditions: as described in PCT/DK04/000546; cited from earlier work
# [3] = system: pigs sensitized to haloperidol; test: dystonia in pigs sensitized to haloperidol; assay type: in vivo
# alfa1 adrenoceptors = conditions: as described in PCT/DK04/000546; cited from earlier work
# DA D2 receptors = DA D2 receptors (Homo sapiens, UniProt P14416); conditions: as described in PCT/DK04/000546; cited from earlier work
# CYP2D6 = CYP2D6 (Homo sapiens, UniProt P10635); conditions: as described in PCT/DK04/000546; cited from earlier work
# Chain of CYP2D6 (P10635 whole entry): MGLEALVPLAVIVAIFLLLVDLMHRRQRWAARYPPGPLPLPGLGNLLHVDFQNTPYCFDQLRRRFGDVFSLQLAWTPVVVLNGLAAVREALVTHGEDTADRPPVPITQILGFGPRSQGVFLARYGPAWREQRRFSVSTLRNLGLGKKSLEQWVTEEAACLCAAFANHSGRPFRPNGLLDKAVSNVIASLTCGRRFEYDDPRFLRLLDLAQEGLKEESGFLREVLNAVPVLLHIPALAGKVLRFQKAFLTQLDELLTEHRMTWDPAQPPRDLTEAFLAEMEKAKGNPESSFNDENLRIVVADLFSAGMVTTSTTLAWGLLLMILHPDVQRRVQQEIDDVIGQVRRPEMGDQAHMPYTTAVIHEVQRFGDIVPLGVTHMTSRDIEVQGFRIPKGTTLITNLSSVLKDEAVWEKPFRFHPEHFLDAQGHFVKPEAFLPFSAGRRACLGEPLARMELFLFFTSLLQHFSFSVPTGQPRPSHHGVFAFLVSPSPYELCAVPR
# Chain of dopamine D2 receptors (P14416 whole entry): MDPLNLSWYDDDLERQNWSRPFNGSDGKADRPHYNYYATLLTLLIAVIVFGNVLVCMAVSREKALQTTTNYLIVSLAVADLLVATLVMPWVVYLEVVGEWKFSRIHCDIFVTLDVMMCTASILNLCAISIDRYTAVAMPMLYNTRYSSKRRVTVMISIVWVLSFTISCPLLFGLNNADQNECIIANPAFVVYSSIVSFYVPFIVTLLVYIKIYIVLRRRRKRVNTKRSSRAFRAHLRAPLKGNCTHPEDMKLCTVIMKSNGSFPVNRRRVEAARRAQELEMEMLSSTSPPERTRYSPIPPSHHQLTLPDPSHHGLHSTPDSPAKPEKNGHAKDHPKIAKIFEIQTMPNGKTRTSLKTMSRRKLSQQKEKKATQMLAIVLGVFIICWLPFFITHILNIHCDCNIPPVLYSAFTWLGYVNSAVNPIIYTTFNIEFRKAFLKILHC
# Chain of DA D2 receptors (P14416 whole entry): as above
# Chain of serotonin 5-HT2a receptors (P28223 whole entry): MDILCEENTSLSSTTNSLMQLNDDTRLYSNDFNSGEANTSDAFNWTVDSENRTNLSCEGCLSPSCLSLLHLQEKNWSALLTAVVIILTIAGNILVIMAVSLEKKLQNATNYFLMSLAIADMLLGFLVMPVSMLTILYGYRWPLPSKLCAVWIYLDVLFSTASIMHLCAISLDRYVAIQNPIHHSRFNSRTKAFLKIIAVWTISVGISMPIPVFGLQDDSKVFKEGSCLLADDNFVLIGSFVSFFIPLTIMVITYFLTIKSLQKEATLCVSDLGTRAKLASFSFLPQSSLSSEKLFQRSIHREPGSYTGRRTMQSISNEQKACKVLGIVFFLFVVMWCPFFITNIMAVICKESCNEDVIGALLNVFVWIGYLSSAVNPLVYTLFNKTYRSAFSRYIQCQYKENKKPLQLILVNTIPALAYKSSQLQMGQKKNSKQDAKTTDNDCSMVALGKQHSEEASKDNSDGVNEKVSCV
# Chain of dopamine (DA) D1 receptors (P21728 whole entry): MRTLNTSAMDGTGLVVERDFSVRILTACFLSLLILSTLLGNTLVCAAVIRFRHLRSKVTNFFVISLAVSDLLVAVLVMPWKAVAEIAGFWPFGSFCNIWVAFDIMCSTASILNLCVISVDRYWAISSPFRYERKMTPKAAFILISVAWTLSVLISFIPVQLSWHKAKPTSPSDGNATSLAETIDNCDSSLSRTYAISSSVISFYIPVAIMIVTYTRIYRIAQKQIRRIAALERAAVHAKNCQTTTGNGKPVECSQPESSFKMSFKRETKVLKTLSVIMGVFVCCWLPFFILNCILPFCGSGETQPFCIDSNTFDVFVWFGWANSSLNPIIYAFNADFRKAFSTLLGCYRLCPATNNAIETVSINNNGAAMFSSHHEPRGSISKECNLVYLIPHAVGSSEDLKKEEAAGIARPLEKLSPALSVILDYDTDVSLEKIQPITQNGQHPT
# Chain of dopamine D1 receptors (P21728 whole entry): as above
structure (smiles),measurement,setting,value
"CC1(C)CN([C@@H]2C[C@@H](c3ccccc3)c3ccc(Cl)cc32)CCN1 [Compound I, trans-1-((1R,3S)-6-chloro-3-phenylindan-1-yl)-3,3-dimethylpiperazine]",affinity for dopamine (DA) D1 receptors,[1],high affinity
same,functional activity at serotonin 5-HT2a receptors,[2],antagonist
same,effect on the QT interval,QT interval,relatively low effect
same,functional activity at dopamine D1 receptors,dopamine D1 receptors,antagonist
same,functional activity at dopamine D2 receptors,dopamine D2 receptors,antagonist
same,induction of dystonia (EPS liability),[3],did not induce dystonia
same,affinity for alfa1 adrenoceptors,alfa1 adrenoceptors,high affinity
same,affinity for DA D2 receptors,DA D2 receptors,high affinity
same,inhibition of CYP2D6,CYP2D6,relatively weak inhibitor
